Source: US10842892B2, “Methods and apparatus for synthesizing imaging agents, and intermediates thereof” (Lantheus Medical Imaging, Inc., priority 2010, dated 2020)
“And” between values parts separate entries of the source, which are not always exact repeats. Identical values can stand only once. Like-named read-outs stand apart in the source and are kept apart here.

Experiments:
[1] = system: healthy adults; test: radiation dosimetry after single injection at rest (OLINDA/EXM, MIRD); type: in vivo, human
Procedure: This was a non-randomized, open-label, single-dose study. A total of 13 healthy adult subjects were enrolled and administered a single dose of imaging agent 1 at a single study center in the United States. Subjects were screened within 14 days prior to enrollment to confirm subject eligibility, and began baseline assessments at the study center the day before study drug administration. Subjects remained at the study center until completion of the Study Day 2 safety assessments (24±8 hours post-dose). A telephone call was made to study subjects 48±8 hours post-dose for adverse event (AE) monitoring. All subjects returned to the study center approximately one week (5-7 days) post-dose for a follow-up safety visit, and were contacted by telephone approximately 14-17 days post-dose for final serious AE monitoring.
On day 1, each subject received a 1-3 mL intravenous bolus injection of imaging agent 1 in a sterile solution of ≤5% ethanol containing ≤50 mg/mL sodium ascorbate in water, calculated to deliver approximately the target dose of imaging agent 1 at the time of injection. The dose was administered in less than 10 seconds, followed immediately by a 3-5 mL saline flush.
Dosimetry analyses. Estimates of radiation dosimetry for the standard organs of the adult male and female models and for the, salivary glands as well as the effective dose equivalent (EDE) (International Commission on Radiological Protection (ICRP), Recommendations of the International Commission on Radiological Protection, Publication 26. Ann ICRP. 1977; 1(3)) and the effective dose (ED) (International Commission on Radiological Protection (ICRP), 1990 Recommendations of the International Commission on Radiological Protection, 60. Ann ICRP. 1990; 21(1-3)) were determined using the OLINDA/EXM software (Stabin, M G, Sparks, R B, et al, OLINDA/EXM: the second-generation personal computer software for internal dose assessment in nuclear medicine.” J Nucl Med 2005 46(6):1023-7) Assessment of radiation dosimetry was based on the MIRD method, with data derived from imaging studies, using methods consistent with MIRD Pamphlet no. 16 (Siegel J A, Thomas S R, Stubbs J B, et al. MIRD pamphlet no. 16: Techniques for quantitative radiopharmaceutical biodistribution data acquisition and analysis for use in human radiation dose estimates. J Nucl Med. 1999 February; 40(2):37S-61S).
The attenuation corrected transverse image data slice planes were combined into a single three-dimensional image matrix for each subject and each time point using custom software. These images were then divided into 6 image sets (“anterior”, “posterior”, “salivary”, “thyroid”, “source”, and “full”) of combined coronal plane image data for each subject at each time point, grouping organs with similar anterior to posterior depths. This was done to optimize the ROI creation, and minimize background contribution to the organs contained in each combined coronal plane image. The “anterior” images contained stomach wall, heart wall, and urinary bladder. The “posterior” images contained kidneys, lumbar spine, and spleen (when visible). The “salivary” images contained the salivary glands (parotid and submandibular). The “thyroid” images contained the thyroid. The “full” images combined all of the coronal image planes that contained subject image data and was used for quantification of the brain and liver. The “source” images contained the calibration source.
Absolute radioactivity was determined by normalizing ROI sums by a calibration factor derived from the calibration source. Region counts were also adjusted for activity containing underlying and overlying tissue that was not part of the organ or tissue being quantified by utilization of background regions of interest. Total body region counts were also corrected for off body background counts. Appropriate normalization of region sizes for organ and adjacent regions were made. […]

[2] = system: patients; test: Phase 2 clinical safety of imaging agent 1 injection; type: in vivo, human
[3] = system: myocardial blood flow; conditions: humans, assumed, equivalent to prior studies; cited from earlier work
[4] = system: myocardial blood flow; conditions: humans, assumed, equivalent to pre-clinical studies; cited from earlier work
[5] = N = 12, Void Interval = 3.5 hours

SMILES: CC(C)(C)n1ncc(OCc2ccc(COCC[18F])cc2)c(Cl)c1=O [imaging agent 1, 2-t-butyl-4-chloro-5-[4-(2-(^18F)fluoroethoxymethyl)-benzyloxy]-2H-pyridazin-3-1]
- mean ED ([1]; N = 12): 0.072 rem/mCi
- mean absorbed dose, heart wall ([1]; N = 12): 0.18 rem/mCi
- mean absorbed dose, kidneys (critical organ) ([1]; N = 12): 0.24 rem/mCi
- ED, Mean [1, 5]: 0.019 mSv/MBq and 1.9E−02 mSv/MBq
- EDE, Mean [1, 5]: 2.2E−02 mSv/MBq
- absorbed dose estimate, Mean, Brain [1, 5]: 2.5E−02 mSv/MBq
- absorbed dose estimate, Mean, Breasts [1, 5]: 8.8E−03 mSv/MBq
- absorbed dose estimate, Mean, Gallbladder Wall [1, 5]: 1.7E−02 mSv/MBq
- absorbed dose estimate, Mean, Heart Wall [1, 5]: 0.048 mSv/MBq and 4.8E−02 mSv/MBq
- absorbed dose estimate, Mean, Kidneys [1, 5]: 0.066 mSv/MBq and 6.6E−02 mSv/MBq
- absorbed dose estimate, Mean, LLI Wall [1, 5]: 1.2E−02 mSv/MBq
- absorbed dose estimate, Mean, Liver [1, 5]: 3.9E−02 mSv/MBq
- absorbed dose estimate, Mean, Lungs [1, 5]: 1.1E−02 mSv/MBq
- absorbed dose estimate, Mean, Muscle [1, 5]: 1.0E−02 mSv/MBq
- absorbed dose estimate, Mean, Osteogenic Cells [1, 5]: 1.9E−02 mSv/MBq
- absorbed dose estimate, Mean, Ovaries [1, 5]: 1.2E−02 mSv/MBq
- absorbed dose estimate, Mean, Pancreas [1, 5]: 1.6E−02 mSv/MBq
- absorbed dose estimate, Mean, Red Marrow [1, 5]: 1.6E−02 mSv/MBq
- absorbed dose estimate, Mean, Salivary [1, 5]: 3.5E−02 mSv/MBq
- absorbed dose estimate, Mean, Skin [1, 5]: 7.9E−03 mSv/MBq
- absorbed dose estimate, Mean, Small Intestine [1, 5]: 1.3E−02 mSv/MBq
- absorbed dose estimate, Mean, Spleen [1, 5]: 1.6E−02 mSv/MBq
- absorbed dose estimate, Mean, Stomach Wall [1, 5]: 4.0E−02 mSv/MBq
- absorbed dose estimate, Mean, Testes [1, 5]: 9.2E−03 mSv/MBq
- absorbed dose estimate, Mean, Thymus [1, 5]: 1.1E−02 mSv/MBq
- absorbed dose estimate, Mean, Thyroid [1, 5]: 3.2E−02 mSv/MBq
- absorbed dose estimate, Mean, Total Body [1, 5]: 1.2E−02 mSv/MBq
- absorbed dose estimate, Mean, ULI Wall [1, 5]: 1.3E−02 mSv/MBq
- absorbed dose estimate, Mean, Urinary Bladder Wall [1, 5]: 2.3E−02 mSv/MBq
- absorbed dose estimate, Mean, Uterus [1, 5]: 1.2E−02 mSv/MBq
- maximum injected dose without exceeding 1 rem ED ([1]; in vivo): 14 mCi
- maximum injected dose without exceeding 10 mSv (1 rem) ED ([1]; in vivo): 521 MBq
- maximum injected dose without exceeding 50 mSv to the critical organ ([1]; kidneys): 770 MBq
- AEs judged to be related to the study drug ([2]; 143 patients): 7
- patients with AEs judged to be related to the study drug ([2]; 143 patients): 2
- seriousness of related AEs ([2]; 143 patients): none were serious
- treatment emergent adverse events (AEs) reported ([2]; 143 patients): 100
- ECG at rest: effect on heart rate, PR interval, QRS duration, QTcF duration ([2]; human, in vivo): no evidence of any clinically relevant effect
- patients reporting treatment emergent adverse events ([2]; of 143 patients): 61
- first pass extraction fraction [3]: 0.94
- first pass extraction fraction [4]: 0.94
